Test results as given in article PMC4604765, “Eye drop delivery of pigment epithelium-derived factor-34 promotes retinal ganglion cell neuroprotection and axon regeneration” (Molecular and Cellular Neurosciences, 2015).
No end group written: not given here.

What was measured:
[1] = test system: βIII-tubulin+ retinal neurons
Text: For all in vitro experiments, adult 6–8-week-old female Sprague–Dawley rats weighing 170–220 g were used. Culture experiments included retinal cells treated with: (1), Neurobasal-A (NBA) alone (Control); and equimolar concentrations of (2), 2.16; (3) 5.4; (4), 10.8 and (5), 21.6 pM PEDF-34/-44; and (6), ciliary neurotrophic factor (CNTF: Peprotech, London, UK), as a positive control at an optimal neuroprotective/axogenic concentration of 440.5 pM, established by us previously ([Ahmed et al., 2009; Douglas et al., 2009]). […] All experiments were performed in triplicate and repeated on three independent occasions.
Mixed adult rat retinal cultures containing enriched populations of retinal neurons, including RGCs, were prepared from 6–8-week-old adult female Sprague–Dawley rats, as described previously ([Ahmed et al., 2006b, 2009, 2010; Douglas et al., 2009; Vigneswara et al., 2013]). Briefly, retinal cells were dissociated using a Papain dissociation kit according to the manufacturer's instructions (Worthington Biochemicals, Lakewood, NJ, USA). […]
The mean number of βIII-tubulin^+ neurons surviving, with neurites and the mean neurite length were quantified as described by us previously ([Vigneswara et al., 2013, 2014]). Briefly, chamber slides were anonymised by a second investigator and βIII-tubulin^+ neuronal soma and neurites quantified in 9 quadrants/well using Axiovision software (Version 4.8; Zeiss) and ImagePro (Version 6.3; Media Cybernetics, Bethesda, MD, USA). Of the 125,000 cells/well plated, the total numbers of neurons in each experiment were determined by βIII-tubulin^+ immunocytochemistry after allowing 30 min for cells to adhere to glass culture slides. […] Neurite outgrowth from at least 180 neurons/condition from the 9 wells was measured, except in control (NBA) cultures, in which a total of 108 neurons were measured.

RGC axons = test: RGC axon regeneration after optic nerve crush (GAP-43 immunohistochemistry of optic nerve); type: in vivo, rat; settings: 21 days after ONC; for number of GAP-43+ axons distal from the lesion site: daily eye drops 1.88 nM; for number of GAP-43+ axons in distal optic nerve stump: weekly intravitreal 1.88 nM
Experimental: In a separate set of experiments comprising the same treatment groups, 6 rats/treatment (i.e. 12 eyes/optic nerves/treatment) were used to evaluate RGC axon regeneration by immunostaining with growth-associated protein-43 (GAP-43) in the optic nerve.
In further experiments, 12 rats (24 eyes/optic nerves)/treatment received 1.88 nM PEDF-34 eye drops daily. Six rats (12 eyes)/treatment were used to assess RGC survival at 21 days using FG backfilling, whilst the remaining 6 rats (12 eyes/optic nerves)/treatment were used to evaluate RGC axon regeneration at 21 days by GAP-43 immunohistochemistry.
All animal procedures were licenced and approved by the United Kingdom Home Office and the University of Birmingham ethical review committee and conformed to the Federation of European Laboratory Animal Associations (FELASA) guidelines. Optic nerves were exposed surgically in anaesthetised adult female Sprague–Dawley rats (170–220 g) through a supraorbital approach and crushed bilaterally using calibrated watchmakers forceps, 2 mm from the lamina cribrosa as described by us previously ([Vigneswara et al., 2013, 2014]).
Either PBS, or 0.268, 0.67, 1.34, 1.88, or 2.68 nM PEDF dissolved in 5 μl of sterile PBS was injected intravitreally immediately after ONC (0 days) and repeated at 7 and 14 days after ONC with the same doses of PEDF. […] Animals survived for 19 days before FG back-labelling and killing by rising CO2 levels 2 days later, and eyes/optic nerves harvested for retinal FG wholemounts.
Animals were killed with an overdose of CO2 and intracardially perfused with 4% formaldehyde, eyes and optic nerves were immersion fixed in 4% formaldehyde for a further 2 h before cryoprotection in a graded series of sucrose. Eyes and optic nerves were embedded in optimal cutting temperature (OCT) compound (Raymond A. Lamb, Eastbourne, UK) and stored at − 80 °C. Subsequently, 15 μm-thick parasagittal eye or longitudinal optic nerve sections were cut using a cryostat (Brights Instruments, Huntingdon, UK), adhered onto glass slides and stored at − 20 °C until required.
Immunohistochemistry was performed as described by us previously ([Vigneswara et al., 2013, 2014]). Briefly, sections were thawed, washed at RT in PBS and permeabilised. Non-specific binding sites were blocked in 3% bovine serum albumin (BSA) containing 0.1% Triton X-100 and then sections were incubated in primary antibody diluted in PBS containing 3% BSA and 0.05% Tween-20, overnight at 4 °C (16–18 h). Monoclonal anti-GAP-43 antibody (1:500 dilution; Invitrogen) stained regenerating axons in optic nerve sections (Table 1). […] Sections were then washed in PBS and incubated with either Alexa Fluor 488 or Texas Red-labelled secondary antibodies (1:400 dilution; Invitrogen) for 1 h at RT, washed in PBS, mounted in Vectamount containing DAPI (Vector Laboratories) and examined with a Zeiss Axioplan 2 fluorescent microscope, equipped with an AxioCam HRc camera and Axiovision software. The negative control sections were used to set the background threshold levels of fluorescence before image capture.
Regenerating axons in the optic nerve were quantified using previously published methods ([Leon et al., 2000; Lorber et al., 2009; Vigneswara et al., 2013, 2014]). […] Briefly, an observer blinded to the identity of the slides […] through each nerve (n = 6 rats/12 optic nerves/treatment).

DPFFKVPVNKLAAAVSNFGYDLYRVRSSTSPTTN [PEDF-34]
fold increase in βIII-tubulin+ neuron numbers compared to untreated cultures ([1]; 5.4 pM, 4 days in culture): 4.5 fold | more neuroprotective than PEDF-44 in vitro ([1]; PEDF-34 versus equimolar PEDF-44, retinal cultures): 43% | number of GAP-43+ axons distal from the lesion site (RGC axons; 200 μm distal, n = 6 rats/12 optic nerves): 4049 ± 355 axons | number of GAP-43+ axons distal from the lesion site (RGC axons; 500 μm distal): 2893 ± 315 axons | number of GAP-43+ axons distal from the lesion site (RGC axons; 1000 μm distal): 2043 ± 120 axons | number of GAP-43+ axons distal from the lesion site (RGC axons; 1500 μm distal): 1285 ± 126 axons | number of GAP-43+ axons distal from the lesion site (RGC axons; 2000 μm distal): 884 ± 139 axons | number of GAP-43+ axons distal from the lesion site (RGC axons; 2500 μm distal): 582 ± 155 axons | number of GAP-43+ axons in distal optic nerve stump (RGC axons; 200 μm from the lesion site, n = 6 rats/12 optic nerves): 2038 ± 234 axons | number of GAP-43+ axons in distal optic nerve stump (RGC axons; 500 μm from the lesion site): 1733 ± 237 axons | number of GAP-43+ axons in distal optic nerve stump (RGC axons; 1000 μm from the lesion site): 1462 ± 175 axons | number of GAP-43+ axons in distal optic nerve stump (RGC axons; 1500 μm from the lesion site): 945 ± 100 axons | number of GAP-43+ axons in distal optic nerve stump (RGC axons; 2000 μm from the lesion site): 79 ± 44 axons | time to detection in vitreous body: < 30 min
